The test system of assay [1] is Human Platelets. The assay is described as follows: In vitro inhibition of collagen-induced platelet aggregation, human platelet-rich plasma. Format: cell-based. The settings on record: 0.05 h, human PRP, collagen 5 μg/ml, 3 minutes of contact at 37° C., read-out: IC50(M) in vitro Man. How it is done: A study of the inhibitory activity of the compounds of formula (I) on platelet aggregation was carried out in vitro, i.e. by direct contact of solutions of variable concentrations of the compounds with platelets freshly separated from a sample of total blood, taken under standardized conditions, from laboratory animals (guinea pigs) and from healthy human subjects who have not received any substances or drugs that might interfere with blood clotting. The anti-platelet-aggregating activity was also studied ex vivo/vitro, i.e. after administration of the substances claimed to guinea pigs to measure the intensity and duration of the anti-aggregating action induced by the fraction of the test product absorbed and circulating in the blood. Venous blood is taken from a group of ten healthy human subjects of the same age, by puncture into a vein of the fold of the elbow and is collected in a glass tube containing aqueous 0.129 M sodium citrate solution (1 volume of citrate solution per 9 volumes of blood). Each tube is then centrifuged a first time at 20° C. and 100 g for 15 minutes in order to obtain the platelet-rich plasma (PRP); after removing this PRP, the tube is again centrifuged at 2000 g for 15 minutes in order this time to remove the platelet-poor plasma (PPP). For each identified sample of PRP, the platelets are counted using a Coulter ZM counter. Each sample is then used to study the variation in inhibition of the platelet aggregation triggered by the addition of a Chromo-par-Reagent collagen glucose solution from Coultronics (used at a concentration of 5 μg/ml) as a function of the addition of increasing concentrations of each compound in a range covering the interval 10^-8 M→10^-5 M, (example of concentrations: 10^-8 […]). Beforehand, for each compound, an aqueous 10^-3 M solution is prepared. A control test intended to check the possible effect of the solvents (reference value) on the platelet aggregation is introduced into each measurement series, and the aggregation is measured after 3 minutes of contact at 37° C. with agitation. From the percentages of inhibition of the platelet aggregation measured for each concentration of each compound, the 50%; inhibitory concentration (IC50) is calculated.

In assay [2] the test system is Guinea Pig Platelets. Nature of the assay: In vitro inhibition of collagen-induced platelet aggregation, guinea pig platelet-rich plasma. The format is cell-based. The settings on record: guinea pig PRP, collagen 1 μg/ml, 3 minutes of contact at 37° C. Here is the method: A study of the inhibitory activity of the compounds of formula (I) on platelet aggregation was carried out in vitro, i.e. by direct contact of solutions of variable concentrations of the compounds with platelets freshly separated from a sample of total blood, taken under standardized conditions, from laboratory animals (guinea pigs) and from healthy human subjects who have not received any substances or drugs that might interfere with blood clotting. The anti-platelet-aggregating activity was also studied ex vivo/vitro, i.e. after administration of the substances claimed to guinea pigs to measure the intensity and duration of the anti-aggregating action induced by the fraction of the test product absorbed and circulating in the blood.
Blood is taken by intracardiac puncture from male Dunkin-Hartley guinea pigs (weighing about 330 g), at a rate of 4.5 ml per 0.5 ml of trisodium citrate (concentration of the aqueous solution: 1.55%;) in order to prevent all trace of clotting. The platelet-rich plasma (PRP) is obtained by centrifuging the tubes of total blood for 15 minutes at 150 g.
The PRPs are collected as “pools”. The platelets contained in these pools are counted using a Coulter ZM haematology automatic device: if necessary, a dilution is carried out in order for the platelet concentration in the plasma to be between 200000 and 400000 platelets/mm^3. Simultaneously, other samples of these pools serve to prepare the platelet-poor plasma (PPP) by centrifugation at 1500 g for 15 minutes.
The kinetic study of the platelet aggregation is carried out by adding a collagen solution (1 μg/ml) to a volume of PRP, using a Chrono-log Corporation aggregometer (490-D1, or 560 VS) which uses an optical detection of the appearance of the thrombus.
The determination of the 50%; inhibitory concentration (IC50) is carried out by adding a given volume of solvent (control reference) and increasing concentrations: 1.5×10^−8 M, 7×10^−8 M, 1.5×10^−7 M, 3×10^−7 M, 7×10^−7 M, 1.5×10^−6 M and […], of the compounds to samples of the pools of PRP. The measurements of the aggregation inhibition are carried out after 3 minutes of contact at 37° C. with agitation.

The mark [3] stands for this setting: Cavia porcellus, Platelet, 0.05 h.

Where a name gives a salt, the structure may show the parent alone.

Take `CCOC(=O)[C@H](CNC(=O)CN1CCN(c2ccc(C(=N)N)cc2)CC1=O)NS(=O)(=O)c1ccccc1` [Example 17, ethyl (2S)-3-{[2-(4-{4-[amino(imino)methyl]phenyl}-2-oxopiperazino)acetyl]amino}-2-[(phenylsulphonyl)amino]propanoate acetate]: the IC50 (commonly the concentration needed to halve the response being measured) came to 1e-05 M in assay [1] and 110 nM in assay [2] (setting [3]).
Take `CCOC(=O)[C@H](CNC(=O)CN1CCN(c2ccc(C(=N)N)cc2)CC1=O)NS(=O)(=O)c1cccnc1` [Example 18, Ethyl (2S)-3-{[2-(4-{4-[amino(imino)methyl]phenyl}-2-oxopiperazino)acetyl]amino}-2-[(3-pyridylsulphonyl)amino]propanoate diacetate]: the IC50 in assay [1] is 3.2e-05 M; in assay [2] (setting [3]), 910 nM.
In the case of `CCOC(=O)[C@H](CNC(=O)CN1CCN(c2ccc(C(=N)N)cc2)CC1=O)NS(=O)(=O)c1cccc2c1NCCC2` [Example 19, Ethyl (2S)-3-{[2-(4-{4-[amino(imino)methyl]phenyl}-2-oxopiperazino)acetyl]amino}-2-[(1,2,3,4-tetrahydro-8-quinolinylsulphonyl)amino]propanoate acetate], the IC50 in assay [1] is 8.2e-06 M; in assay [2] (setting [3]) it was 250 nM.
Consider `CCOC(=O)[C@H](CNC(=O)CN1CCN(c2ccc(C(=N)N)cc2)CC1=O)NS(=O)(=O)c1ccc(C)cc1` [Example 23, Ethyl (2S)-3-{[2-(4-{4-[amino(imino)methyl]phenyl}-2-oxopiperazino)acetyl]amino}-2-{[4-toluenesulphonyl]amino}propanoate acetate], for which the IC50 in assay [1] is 1.8e-05 M; in assay [2] (setting [3]), 420 nM.
`CCOC(=O)[C@H](CNC(=O)CN1CCN(c2ccc(C(=N)N)cc2)CC1=O)NS(=O)(=O)c1ccc(Cl)cc1` [Example 24, Ethyl (2S)-3-{[2-(4-{4-[amino(imino)methyl]phenyl}-2-oxopiperazino)acetyl]amino}-2-{[(4-chlorophenyl)sulphonyl]amino}propanoate acetate]: the figures for the IC50 in assay [1] and in assay [2] (setting [3]) were 9.3e-06 M and 320 nM, respectively.
With `CCOC(=O)[C@H](CNC(=O)CN1CCN(c2ccc(C(=N)N)cc2)CC1=O)NS(=O)(=O)c1ccc2ccccc2c1` [Example 25, Ethyl (2S)-3-{[2-(4-{4-[amino(imino)methyl]phenyl}-2-oxopiperazino)acetyl]amino}-2-[(2-naphthylsulphonyl)amino]propanoate acetate], the IC50 came to 9.5e-05 M in assay [1] and 200 nM in assay [2] (setting [3]).
For `CCOC(=O)[C@H](CNC(=O)CN1CCN(c2ccc(C(=N)N)cc2)CC1=O)NC(=O)OCC(C)C` [Example 26, Ethyl (2S)-3-{[2-(4-{4-[amino(imino)methyl]phenyl}-2-oxopiperazino)acetyl]amino}-2-[(isobutoxycarbonyl)amino]propanoate acetate] the same measures were 5.7e-06 M and 400 nM.
For `CCOC(=O)[C@H](CNC(=O)CN1CCN(c2ccc(C(=N)N)cc2)C(=O)C1)NS(=O)(=O)c1ccccc1` [Example 29, Ethyl (2S)-3-{[2-(4-{4-[amino(imino)methyl]phenyl}-3-oxopiperazino)acetyl]amino}-2-[(phenylsulphonyl)amino]propanoate acetate], the results for the IC50 in assay [1] and in assay [2] (setting [3]) were 5.3e-06 M and 1800 nM, respectively.
For `N=C(N)c1ccc(N2CCN(CC(=O)NC[C@H](NS(=O)(=O)c3ccccc3)C(=O)O)C(=O)C2)cc1` [Example 30, (2S)-3-{[2-(4-{4-[amino(imino)methyl]phenyl}-2-oxopiperazino)acetyl]amino}-2-[(phenylsulphonyl)amino]propanoic acid hydrochloride] the same measures were 1.2e-07 M and 94 nM.
On to `Cc1ccc(S(=O)(=O)N[C@@H](CNC(=O)CN2CCN(c3ccc(C(=N)N)cc3)CC2=O)C(=O)O)cc1` [Example 31, (2S)-3-{[2-(4-{4-[Amino(imino)methyl]phenyl}-2-oxopiperazino)acetyl]amino}-2-{[4-toluenesulphonyl]amino}propanoic acid hydrochloride], for which the values for the IC50 in assay [1] and in assay [2] (setting [3]) were 3.4e-07 M and 310 nM, respectively.
The compound `CCOC(=O)[C@H](CNC(=O)CN1CCN(c2ccc(C(=N)N3CCOCC3)cc2)CC1=O)NS(=O)(=O)c1ccc(C)cc1` [Example 40] yielded an IC50 in assay [2] of 1000 nM.
As to `CCOC(=O)[C@H](CNC(=O)CN1CCN(c2ccc(C(=N)N3CCCCC3)cc2)CC1=O)NS(=O)(=O)c1ccc(C)cc1` [Example 41, Ethyl (2S)-3-{[2-(4-{4-[imino(piperidino)methyl]phenyl}-2-oxopiperazino)acetyl]amino}-2-{[4-toluenesulphonyl]amino}propanoate], the IC50 in assay [2] (setting [3]) turned out to be 1600 nM.

For the origin of these results see US6335337B1, “Substituted piperazinones and their therapeutic uses” (Laboratoire L. Lafon, priority 1998, dated 2002).
